Patent publication US20220186286A1, “FLUORESCENT PROBE FOR DETECTING ACTIVATION OF SIALIDASE” (The University of Tokyo, priority 2019, published 2022)

Key:
[1] = tested on: neuraminidase (from Arthrobacter ureafaciens); assay: dynamic (kinetic) parameters of the probes as neuraminidase substrates; format: biochemical; settings: for Km / Vmax / kcat: 50 mM NaOAc, 2 mM CaCl2, 100 μg/mL BSA buffer (pH 6.5), 60 minutes; for kcat/Km relative to that of 4-MUNANA: fold larger than 4-MUNANA
Experimental: The probe was dissolved in 200 μL (total volume) of 50 mM NaOAc, 2 mM CaCl2, 100 μg/mL BSA buffer (pH 6.5) at various concentrations. A neuraminidase (from Arthrobacter ureafaciens, […]) was added, and the increase in fluorescence for 60 minutes was evaluated. Concerning the dynamic parameter Vmax and Km, the corrected data were calculated using the following formula.
V0 is the steady state speed of the probe substrate rotation by the neuraminidase, Vmax is the maximum speed (mM/min), X is the probe concentration in the reaction mixture (mM), and Km is the Michaelis constant (mM) at which the reaction speed is half of Vmax. Formula 1 was fitted to the data using KaleidaGraph 4.5.2 software (Synergy Software).
The dynamic parameters of HMRef-Neu5Ac and HMRef-S-Neu5Ac were determined in accordance with the method previously described by Govorkova et al., and compared to that of a commercial sialidase substrate, 4-MUNANA.

[2] = photochemical properties (absorption, emission, quantum yield, pKa, pKcycl); format: physicochemical; settings: for pKcycl: spiro ring formation
Experimental: UV-vis spectra were obtained with a spectrophotometer, Shimadzu UV-2450.
Fluorescence spectra were obtained with Hitachi F-7000. The absolute fluorescence quantum efficiency was measured using an absolute PL quantum yield measuring apparatus, Quantuarus-QY (Hamamatsu Photonics K. K.). The probe was dissolved in dimethyl sulfoxide (DMSO, grade for fluorometry, DOJINDO LABORATORIES) to obtain a stock solution.
(§1) The optical property of the probe was acquired in a 0.2 M sodium phosphate buffer, a 100 mM NaOAc, 2 mM CaCl2, pH 6.5 buffer, or a 50 mM NaOAc, 2 mM CaCl2, 100 μg/mL BSA, pH 7.4 buffer. For an in vitro enzymatic reaction, the probe DMSO stock solution was diluted with a 100 mM NaOAc, 2 mM CaCl2, pH 7.4 buffer so that the final concentration was 1 μM. First, the fluorescence of the solution before adding a sialidase was measured every second (excitation wavelength: 490 nm, emission wavelength: 520 nm). Then, a neuraminidase from Arthrobacter ureafaciens (0.01 U) was used for this assay.

[3] = tested on: neuraminidase from Arthrobacter ureafaciens; assay: in vitro enzymatic reaction with sialidase, change in fluorescence intensity over time; format: biochemical; settings: for increase in the fluorescence in reaction with the sialidase: 1 μM probe, 0.01 U enzyme, 100 mM NaOAc 2 mM CaCl2 buffer pH 7.4, 37° C.; for change in the fluorescence in the absence of enzyme: identical reaction without enzyme, pH 7.4, 37° C.
Experimental: as §1
The fluorescence intensity of HMRef-Neu5Ac obtained in Synthesis Example 1 was changed through an enzymatic reaction with a neuraminidase (Arthrobacter ureafaciens), and the change in the fluorescence intensity of HMRef-Neu5Ac over time was examined. HMRef-Neu5Ac was dissolved in a 100 mM NaOAc 2 mM CaCl2 buffer (pH 7.4) to prepare a 1 μM solution, and 0.01 U of the enzyme was added 60 seconds after the start of measurement. At the time of measurement, the temperature was 37° C., and the concentration of an enzyme inhibitor (DANA) was 100 μM.
In the same manner as in the evaluation of HMRef-Neu5Ac, the reaction with a sialidase and the absorption spectrum at each pH were acquired for HMRef-S-Neu5Ac (FIGS. 3a and 3b).

[4] = stability of the probe at various pH values (fluorescence intensity and absorption spectra over time); format: physicochemical; settings: for stability: change in fluorescence intensity over time at various pH values: 0.2 M sodium phosphate buffer, 2 hours, ex/em 485 nm/535 nm; for change of absorption spectra 1.5 hours after dissolution: 0.2 M sodium phosphate buffers of various pH, immediately after vs 1.5 hours after dissolution
Experimental: HMRef-Neu5Ac was dissolved in 0.2 M sodium phosphate buffers having various pH values, and the absorption spectra were measured immediately after and 1.5 hours after the dissolution.
The stability of HMRef-Neu5Ac and that of HMRef-S-Neu5Ac were directly compared by recording the changes in fluorescence intensity over time at a pH within a range. The initial fluorescence intensity values of both the probes depend on the pH value according to the pKcycl values of the probes. That is, the lower the pH is, the larger the initial fluorescence intensity value is.
The measurement was performed in 0.2 M sodium phosphate buffer at 37° C. and measurements were taken every 5 minutes. In each measurement, excitation/emission wavelengths of 485 nm/535 nm were used.

[5] = pH 2, 0.2M sodium phosphate buffer
[6] = pH 7.4, 0.2M sodium phosphate buffer

Row | SMILES | Km [1] [µM] | Vmax [1] [nM/s] | kcat [1] [s⁻¹] | pKa ([2]; 0.2 M sodium phosphate buffer) | Absorption max. [2, 5] [nm] | Emission max. [2, 5] [nm] | fluorescence quantum yield (absolute fluorescence quantum efficiency) [2, 5] | Absorption max. [2, 6] [nm] | Emission max. [2, 6] [nm] | fluorescence quantum yield (absolute fluorescence quantum efficiency) [2, 6] | pKcycl [2] | increase in the fluorescence in reaction with the sialidase [3] | change in the fluorescence in the absence of enzyme [3] | kcat/Km relative to that of 4-MUNANA [1] [fold] | stability: change in fluorescence intensity over time at various pH values ([4]; 37° C.) | change of absorption spectra 1.5 hours after dissolution [4] | time to complete hydrolysis ([4]; pH 2 and pH 4, 0.2 M sodium phosphate buffer, 37° C.)
1 | CC(=O)N[C@@H]1[C@@H](O)C[C@](Oc2ccc3c(C)cc(=O)oc3c2)(C(=O)O)O[C@H]1C(O)[C@H](O)CO (stereo partly drawn) [4-MUNANA, 2′-(4-methylumbelliferyl)-α-D-N-acetylneuraminic acid, reference compound] | 37 | 1.73 | 2.6 | – | – | – | – | – | – | – | – | – | – | – | – | – | –
2 | O=c1ccc2c(-c3ccccc3CO)c3ccc(NCC(F)(F)F)cc3oc-2c1 [HMRef, reference compound] | – | – | – | 4.4 | 479 | 515 | 0.716 | 498 | 518 | 0.777 | 10.2 | – | – | – | – | – | –
3 | CC(=O)N[C@H]1[C@H]([C@H](O)[C@H](O)CO)O[C@@](Oc2ccc3c(c2)Oc2cc(NCC(F)(F)F)ccc2C32OCc3ccccc32)(C(=O)O)C[C@@H]1O (some centres unmarked) [HMRef-Neu5Ac] | 19 | 13.5 | 20.6 | – | 484 | 522 | 0.650 | – | – | 0.323 | 4.8 | up to 40 fold | 3 fold | ~16 | clear instability at all the pH values | greatly changed in shape | about 40 minutes
4 | CC(=O)N[C@H]1[C@H]([C@H](O)[C@H](O)CO)O[C@@](Oc2ccc(COc3ccc4c(c3)Oc3cc(NCC(F)(F)F)ccc3C43OCc4ccccc43)cc2)(C(=O)O)C[C@@H]1O (some centres unmarked) [HMRef-S-Neu5Ac] | 11 | 7.03 | 10.7 | – | 484 | 522 | 0.537 | – | – | 0.271 | 5.3 | 130 fold | remained at a constant low level | ~13 | changed little over the time | changed little | –
